# Laboratory results: patent US9750784B2 (priority 2013, dated 2017)
# Square brackets hold non-standard residues; d marks the D form. Peptide text beside a SMILES is read from it. * marks the point of attachment. Sta = CC(C)C[C@H](N)[C@@H](O)CC(=O)O; Isovaleryl = CC(C)CC(=O)*
# What was measured:
# [1] = pooled synovial fluid of patients, Powell et al. Table II; cited from earlier work
# [2] = In vivo joint microdialysis in guinea pig knee joint; parameters: species or system guinea pigs (Dunkin Hartley); conditions: 1 mg/joint in 50 μl as suspension, microdialysis eluates
# Protocol: (§1) For these investigations, microdialysis probes from CMA (reference number 000082; CMA 7; microdialysis sample 1 mm 3/pkg) fitted with a cuprophane membrane and having a pore size of 6 kDa were used. The eluate flow rate was 0.5 μl/min.
# ACLT tMx arthrosis model = experiment: Efficacy in vivo in arthrosis, ACLT tMx model; parameters: species or system rats; conditions: rat ACLT tMx, 1 mg in 30 μl intraarticular, 6 weeks, histological assessment
# Protocol: Rats were selected as experimental animals. After shaving and disinfection, the operation area is opened by means of a medial skin cut with a length of about 1 cm. The knee joint capsule is prepared and the medial patellar ligament is exposed. After opening of the joint capsule, cutting of the medial parapatellar ligaments and lateral displacement of the patella, the anterior cruciate ligament is cut using a curved knife with a blunt end (ACLT=anterior cruciate ligament transection). The anterior and posterior ligaments holding the meniscus in place are subsequently prepared and cut and the meniscus is removed tMx (resection of the medial meniscus). After repositioning of the patella, the joint is finally rinsed with sterile saline solution in order to remove any blood coagulum that may have formed. The patella is repositioned, and the medial patellar ligament is re-fixed by means of continuous suture with sealing of the capsule. The muscles are likewise sutured. The skin is subsequently closed by means of single stitches. The operation duration is about 10 minutes. The postoperative trial duration was 6 weeks. For intraarticular injection, the animals are anaesthetised with 1.5-2% by vol. of isoflurane. […] Two sections in the region of the exposure zone were selected from each animal and assessed by two experienced people using an assessment system. […]
# [3] = tested on: cartilage explant cultures; conditions: pH 5.5, explant cultures (mouse, cow or human); cited from earlier work
# [4] = target: T1, cathepsin D isolated from the human liver (Homo sapiens, UniProt P07339); experiment: In-vitro fluorescence assay for identification of cathepsin D inhibitors; format: biochemical; conditions: pH 5.5
# T1 construct: cathepsin D isolated from the human liver (Sigma-Aldrich); purchased Sigma-Aldrich; host or cells: human liver (tissue-derived)
# Protocol: In order to identify modulators of cathepsin D activity, a continuous enzymatic test was carried out with a synthetic peptide which carries a fluorescent group (MCA=(7-methoxycoumarin-4-yl)acetyl) which is quenched by energy transfer from a Dpn (2,4 dinitrophenyl) group on the same molecule, in Greiner 384-well nb microtitre plates. Cleavage of the peptidic substrate by cathepsin D causes an increase in the fluorescence intensity. In order to determine the efficacy of substances, the time-dependent increase in the fluorescence intensity in the presence of the substance was compared with the time-dependent increase in fluorescence in the absence of substances. […] The enzyme employed was cathepsin D isolated from the human liver (Sigma-Aldrich) in a final concentration of 1.4 nM. The test was carried out in 100 mM sodium acetate buffer, 1.25% (v/v) of DMSO, 0.25% (w/v) of Chaps, pH 5.5. […] After carrying out a starting-point fluorescence measurement (excitation wavelength 340 nm/emission wavelength 450 nm) using an Envision multilabel reader (Perkin Elmer), the reaction was incubated at room temperature for 60 min. The amount of peptide fragment cleaved off during the reaction time was subsequently measured by determination of the increase in the fluorescence intensity at 450 nm (excitation wavelength 340 nm).
# [5] = Pharmacokinetic data after intraarticular injection; format: in vivo, Lister hooded rats; conditions: for Average joint diameter [mm]: rat knee, about 700 μg suspension intraarticular
# Protocol: For this study (KK-Rat-12-003), 14 male Lister hooded rats were used. All rats were given a single intraarticular injection into both knee joints at time “0”. An injection consisted of 30 μl in which about 700 μg of compound were homogeneously suspended (suspension=compound in 0.5% Methocel K4M with 0.25% Tween20 in PBS). The suspension was administered via a 25 G cannula. […] At each point in time indicated in Table 2, animals were sacrificed, the knee joints were prepared (removal of skin and muscle tissue) and frozen for further processing.
# The deep-frozen joints were briefly thawed, comminuted as well as possible using bone scissors, and 4 times the volume of 80% ethanol was subsequently added. The mixture was subsequently homogenised using an Ultraturrax, the extract was shaken at RT for 20 min and then stored at −20° C. for at least 30 min. The mixture was then centrifuged at 13,000 rpm for 5 min, a 10 μl aliquot of the supernatant was diluted 1:5000 with internal standard solution, transferred into a PCR plate and analysed.
# 20 μl of internal standard solution were added to 20 μl of plasma, 100 μl of methanol were added, and the mixture was shaken for 5 min. The extracts were then stored at −20° C. for at least 30 min and subsequently centrifuged at 13,000 rpm for 5 min. 80 μl of the supernatant were transferred into a PCR plate and analysed.
# All samples were analysed with the aid of a UPLC-MS/MS system.
# [6] = In vitro microdialysis in bovine synovial fluid; format: in vitro ADME; conditions: 3 mg per ml, 6 kDa membrane
# Source text: Since the synovial fluid on the one hand represents a complex matrix for the analytical determination of peptides and on the other hand only the free, i.e. non-protein-bound medicament fraction is relevant for the action, the microdialysis method was employed. The eluate obtained from the microdialysis enables analysis of free medicament levels from the complex matrix of the synovial fluid. The reason for this is that a barrier membrane (microdialysis membrane) which only molecules up to a certain size is able to pass through is employed. This “pore size” determines the concentration of the medicament in the eluate besides the flow rate of the eluate and the free concentration of medicament present in the synovial fluid as driving force for material exchange.
# as §1
# Firstly, release kinetics in bovine synovial fluid were investigated and compared with triamcinolone (Triam Injekt® 20 mg)—a medicament approved for intraarticular injection. […] 3 mg of medicament per ml of synovial fluid were employed in a glass vessel, which corresponds approximately to the concentration conditions after intraarticular injection into the knee joint.
# Cartilage penetration = format: in vitro ADME
# [7] = Toxicity and genotoxicity
# [8] = tested on: carrageenan-induced inflammation of the rat knee joint; experiment: Anti-hyperalgesic action in animals (carrageenan injected intraarticularly into rat knee joint, Hargreaves test); format: in vivo; conditions: intraarticular 30 minutes before CAR
# Protocol: In order to induce an inflammation reaction, a carrageenan solution (CAR, 1%, 50 μl) was injected intraarticularly on one side into a rat knee joint. The uninjected side was used for control purposes. Six animals per group were used. The […] was determined by means of a micrometer screw (medial-lateral on the knee joint), and the thermal hyperalgesia was determined by means of a directed infrared light source by the Hargreaves method (Hargreaves et al. 1988) on the sole of the foot. Since the site of inflammation (knee joint) is different from the site of measurement (sole of the paw), use is made here of the term secondary thermal hyperalgesia, the mechanisms of which is of importance for the discovery of effective analgesics.
# Experimental description of thermal hyperalgesia (Hargreaves test): the experimental animal is placed in a plastic chamber on a quartz sheet. Before testing, the experimental animal is firstly given about 5-15 minutes time to familiarise itself with the environment. […] Light reflected by the paw is recorded as long as the experimental animal sits still. Withdrawal of the paw interrupts this reflection, after which the infrared light source is switched off and the time from switching on to switching off is recorded. […]
# [9] = Pharmacokinetic data after intravenous and oral administration; format: in vivo, Wistar rats; conditions: Wistar rat
# Protocol: The test substances were dissolved in DMSO/PEG200/water (2/60/38 v/v) with a final concentration of 0.8 mg/ml, and a dose of 0.2 mg/kg i.v. and 0.5 mg/kg orally was administered. […] The blood samples were collected in centrifuge tubes containing Li heparin and centrifuged at about 10,000 g at 4° C. for 3 min. The plasma obtained therefrom was immediately frozen at −20° C. and stored until analysis. The plasma concentrations were determined by means of a standard LC-MS/MS method. The pharmacokinetic parameters (Clp, Vss, T1/2, F) were determined via an NCA analysis.
# [10] = Stability of pepstatin in bovine synovial fluid; format: in vitro ADME; conditions: pooled bovine synovial fluid, 37° C., initial 1 μM
# Protocol: In order to check the stability of individual compounds, a pool of 4 different bovine synovial fluids is mixed. To this end, about 1 ml per SF are used. The mixture is prepared directly in a 5 ml glass vessel in order to minimise any absorption effects. The SFs are mixed thoroughly, but carefully. No air bubbles or foam should form. To this end, a vortex unit is used at the lowest speed. The compounds to be tested are tested in an initial concentration (unless requested otherwise) of 1 μM. After addition of the substance, the batch is again mixed thoroughly and carefully. For visual monitoring, all SF batches are photographed, and the pictures are filed in the eLabBio file for the corresponding experiment. The batches are incubated in the incubator for 48 h at 37° C. and 7.5% CO2.
# The sampling is carried out after the pre-agreed times (unless requested otherwise, see below). 4×200 μl of the SF are removed from the mixture at each point in time and transferred directly into 0.5 ml “low-binding” Eppendorf vessels. […]
# The samples are stored in “low-binding” Eppendorf vessels at −20° C. The samples are subsequently measured quantitatively. […]
# The concentrations measured (ng/ml) are plotted against time in a graph (Graph Pad Prism®). The percentage stability of the substance is determined here. […]
# T1 sequence (P07339 65-161 limits assumed): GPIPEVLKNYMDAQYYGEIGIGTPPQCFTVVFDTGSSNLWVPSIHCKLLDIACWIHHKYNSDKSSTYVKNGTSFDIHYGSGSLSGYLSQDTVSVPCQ
# T1 sequence (P07339 169-412 limits assumed): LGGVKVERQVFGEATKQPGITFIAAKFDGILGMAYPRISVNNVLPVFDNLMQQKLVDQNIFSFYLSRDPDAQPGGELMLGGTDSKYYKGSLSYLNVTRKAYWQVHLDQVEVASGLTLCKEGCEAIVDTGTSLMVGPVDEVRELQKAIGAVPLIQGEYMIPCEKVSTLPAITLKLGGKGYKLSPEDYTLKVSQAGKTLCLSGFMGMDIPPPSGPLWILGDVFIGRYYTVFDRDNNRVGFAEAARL
molecule,measurement,setting,value
pertussis toxin,half life in synovial fluid,[1],barely two days
"CC(C)CC(=O)N[C@H](C(=O)N[C@H](C(=O)N[C@@H](CC(C)C)[C@@H](O)CC(=O)N[C@@H](C)C(=O)N[C@@H](CC(C)C)[C@@H](O)CC(=O)O)C(C)C)C(C)C [Pepstatin, (3S,4S)-3-hydroxy-4-[(S)-2-((3S,4S)-3-hydroxy-6-methyl-4-{(S)-3-methyl-2-[(S)-3-methyl-2-(3-methyl-butyrylamino)butyrylamino]butyrylamino}heptanoylamino)-propionylamino]-6-methylheptanoic acid] (Isovaleryl-VV[Sta]A[Sta]-OH)",time after intraarticular injection up to which significant levels are detectable in the joint,[2],up to 14 days
same,efficacy in vivo in arthrosis,ACLT tMx arthrosis model,significant efficacy
same,inhibition of autodigestion of the cartilage,[3],inhibited virtually completely
same,inhibition of cathepsin D (in words),[4],nanomolar range
same,Average joint diameter [mm],[5]; 0 days after injection,10.08 mm
same,Average joint diameter [mm],[5]; 1 day after injection,10.88 mm
same,Average joint diameter [mm],[5]; 2 days after injection,10.50 mm
same,Average joint diameter [mm],[5]; 4 days after injection,10.12 mm
same,Average joint diameter [mm],[5]; 7 days after injection,10.35 mm
same,Average joint diameter [mm],[5]; 9 days after injection,10.14 mm
same,Average joint diameter [mm],[5]; 11 days after injection,10.37 mm
same,Average joint diameter [mm],[5]; 13 days after injection,10.24 mm
same,Average joint diameter [mm],[5]; 15 days after injection,10.45 mm
same,Average joint diameter [mm],[5]; 20 days after injection,10.18 mm
same,Average joint diameter [mm],[5]; 27 days after injection,10.50 mm
same,systemic exposure,"[5]; rat, intraarticular administration of a suspension",very low
same,time after administration up to which detectable in the plasma,"[5]; rat, intraarticular suspension, very low concentration",up to 28 days
same,"changes of in-life parameters (body weight, knee swelling, relieving postures)","[5]; rat, single intraarticular injection of about 700 μg suspension into both knee joints",No peculiarities
same,levels of unbound medicament in microdialysis eluate,[6],very high levels
same,cartilage penetration,Cartilage penetration,good
same,toxicity or genotoxicity,[7],no measurable toxicity or genotoxicity
same,reduction of thermal hyperalgesia,"[8]; rat, Hargreaves test",able to reduce the extent of thermal hyperalgesia as a function of the dose
same,plasma concentrations after oral administration,[9]; 0.5 mg/kg orally,below the detection limit
same,clearance,[9]; i.v. 0.2 mg/kg,> 100 % liver blood flow
same,distribution volume,[9]; i.v. 0.2 mg/kg,average
same,half-life,"[9]; male, plasma, iv, i.v. 0.2 mg/kg",~8.4 min
same,period of stability in synovial fluid,[10],at least two weeks
"C[C@]12C=CC(=O)C=C1CC[C@H]1[C@@H]3C[C@@H](O)[C@](O)(C(=O)CO)[C@@]3(C)C[C@H](O)[C@@]12F [TAC, Triamcinolone, reference compound]",reduction of CAR-induced swelling,"[8]; rat knee joint, TAC 10 μg/joint",capable of reducing
"CC(C)c1nc(CN(C)C(=O)N[C@H](C(=O)N[C@@H](Cc2ccccc2)C[C@H](O)[C@H](Cc2ccccc2)NC(=O)OCc2cncs2)C(C)C)cs1 [ritonavir, reference compound]",inhibition of autodigestion of the cartilage,[3],inhibited virtually completely
